Test results reported in patent US8653049B2, “Normuramyl glycopeptide compounds” (priority 2008, dated 2014).
“And” between values parts separate entries of the source, which are not always exact repeats. Equal values may be shown once. “Also recorded” adds a separate entry of the source.

Experiments:
[1] = rabbits, liposomal preparations s.c. 100 nmol/kg, 3 rabbits per group; passes if below 1.1° C.
In short: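 Pyrogenicity was tested in New Zealand albino rabbits (3 per group) given liposomal preparations at 100 nmol/kg s.c., with temperature taken at 1, 2, 3, 4, 6 and 24 h. Controls were empty liposomes, liposomal and free MDP (50.7 nmol/kg) and B30-norAbu-MDP. A pass required summed ΔTmax below 1.1 °C.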

S. typhimurium = assay: Stimulation of innate immunity against Salmonella Typhimurium; assay type: in vivo, BALB/c mice; conditions: liposomal preparations
Description: Test compounds at doses of 5, 10, 25, 50, 100 and 200 nmol per mouse were applied in., s.c., i.v., or p.o. 3 and 1 days before experimental infection (10 animals per group). Various organs (intestines, liver, spleen, lungs) were examined for the presence of salmonellae on day 30 post infection. Results were expressed as numbers of colony forming units (CFU) of S. typhimurium per 1 gram of tissue. Statistically significant differences in numbers of CFU between the individual experimental groups were calculated by one-way analysis of variance.

C. albicans strain 2091 = assay: Stimulation of innate immunity to Candida albicans infection, survival; conditions: s.c. 24 h after i.v. infection, vs PBS control, FIG. 20
Salmonella enteritidis = assay: Stimulation of innate immunity against Salmonella Enteritidis; conditions: for protective effect / survival rate in S. Enteritidis infection: 0 or 1 case of death by day 12; for Day 6 Intest.: clear/infected/dead / Day 6 Liver: clear/infected/dead / Day 6 Lungs: clear/infected/dead / Day 6 Spleen: clear/infected/dead / Day 12 Intest.: clear/infected/dead / Day 12 Liver: clear/infected/dead / Day 12 Lungs: clear/infected/dead / Day 12 Spleen: clear/infected/dead: liposomal, 20 nmol per dose p.o. 72 and 24 h before infection (LD50), 5 mice
[2] = system: Trichophyton mentagrophytes TM 179; assay: Adjuvant activity for hsp60 DNA vaccine against ringworm; assay type: in vivo, guinea pigs; set-up: key: semi-quantitative 0 to +++ method (where U=ulceration) for evaluation of dermal reactions, i.e. pathological lesions; semi-quantitative 0 to +++ method (where U=ulceration) for evaluation of dermal reactions, i.e. pathological lesions; semi-quantitative 0 to +++ method (where U=ulceration) for evaluation of dermal reactions, i.e. pathological lesions; semi-quantitative 0 to +++ method (where U=ulceration) for evaluation of dermal reactions, i.e. pathological lesions; U=ulceration; conditions: per animal
[3] = system: GM-CFC progenitors in bone marrow; assay: GM-CFC recovery, test compounds before sub-lethal irradiation; assay type: in vivo, ICR/CD-1 mice; conditions: s.c. 100 nmol 24 h before 6 Gy, day 13, FIGS. 33-35
Description: Institite of Cancer Research (ICR/CD-1) mice (female, age of 3 months, 3-4 per group) were stimulated by s.c. administration of test compounds (volume of 200 μl, 100 nmol per dose) 24 h before sublethal γ-irradiation (6 Gy, ^60Co γray source Chisostat, Chirana Ltd., Czech Republic, at a dose of 0.285 Gy/min.). Mice were sacrified at day 13 and recovery of GM-CFC in femour was assayed by counting of colonies (CFC) formed after cultivation in medium. Non-irradiated mice were used as control for normal GM-CFC count in femour. PBS and empty liposomes were used as controls for spontaneous recovery. Liposomal MDP was used as reference standard.
The following parameters of hemopoiesis were evaluated: • a) Blood leukocyte counts and bone marrow cellularity. Blood leukocytes (samples of blood drawn from an incision of the tail vein) and nucleated cell elements of the femoral bone marrow (femoral diaphyses flushed with saline) were estimated by means of Coulter Counter (Model ZN, Coulter Electronics). • b) Colony-forming cells in spleen. Endogenous spleen colony-forming units (E-CFUs) were measured on day 9 post the whole-body irradiation with 6.5 Gy (5 mice per group) according to Till and McCulloch. • c) GM-CFC progenitors in bone marrow. Femoral bone marrow cells were obtained from mice by flushing the femour with sterile IMDM medium. Harvested cells were calculated and diluted to 1.5×10^5 cells/ml and plated in triplicate in a semisolid environment created by plasma clot (Iscovess modification of Dulbecco's medium, 20% of fetal calf serum, 10% of colony-stimulating factor, 10% of citrate plasma, and CaCl2 1.5 mg/ml). The cultures were incubated for 7 days at 37° C. in 5% CO2. Colonies of at least 50 cells were scored at 40× magnification.
Statistical significance between individual experimental groups of mice in hemopoietic parameters was calculated by one-way analysis of variance. The Newman-Keuls test for comparison of all pairs of columns and the Dunnett test for comparison of all columns with the control column were used in the analysis.

[4] = system: r-hsp90 (Candida albicans hsp90) specific IgG antibodies; assay: Proteoliposome vaccine against C. albicans hsp90: antibody (humoral) response, ELISA; assay type: in vivo, BALB/c mice; conditions: Experiment 12.2; liposomal compound (5%) + Ni-HSP90, boost day 14; FIG. 13
Description: Proteoliposomes were prepared by coupling recombinant hsp90 antigen (r-hsp90, 6×HISTag) via a metal chelating lipid to liposomes containing muramyl glycopeptide derivatives as adjuvant component. BALB/c […] mice 4 to 5 weeks old (female 20±2 g, 5 animal per group) were immunized by the intradermal route either with 20 μg of free or liposomal r-hsp90 (volume of 60 μl) either with or without L18-norAbu-MDP and boosted 21 days later by the same composition of experimental vaccine. FCA was used as positive control r-hsp90. Liposomal vaccine composition 20 μg of rHSP90 antigen, 5% metallochelating lipid, 5% particular MT analogue, 90% phospolipids.
Blood samples were collected from the tail vein into heparinised capillary PCV tubes. After centrifugation, the upper part of the tube, containing […] blood serum, was cut off, thrown into […] diluting solution and thoroughly shaken. Thus, a basic dilution of 1:33 was obtained. The pre-diluted sera were kept at −20° C. Blood samples were collected before the first immunization, 2 weeks thereafter and subsequently at weekly intervals up to the 4th week after the second immunisation. Specific IgG antibodies in blood serum samples were determined by the standard indirect ELISA procedure. The data obtained were processed statistically using the non-parametric Mann-Whitney U-test.
Proteoliposomes with muramyl glycopeptide derivatives were prepared as described above, but the boost was carried out already after 14 days. The liposomal vaccine composition was as for Experiment Set 1: 20 μg of rHSP90 antigen, 5% metallochelating lipid, 5% particular MT analogue, 90% phospolipids.
Controls: Aluminum hydroxide (AlOH) and Freund complete adjuvans (FCA) were used as positive controls. PBS with empty liposomes was used as negative control (control). Humoral response was tested at day 14 after vaccination (post priming) and at day 20 after vaccination (post booster). Antibody titres were wer assayed by ELISA.

[5] = system: NK-sensitive YAC1 target cells; assay: NK cell-mediated cytotoxicity of spleen mononuclear cells, 51Cr-release against YAC1; conditions: FLV-inoculated mice, day 16, 18 h incubation with YAC1; FIG. 26
[6] = system: granulocyte-macrophage progenitor cells (GM-CFC); assay: Colony stimulating activity (CSA) of serum on GM-CFC; assay type: in vivo, mouse; conditions: liposomal compounds; FIG. 32
Description: Determination of Colony stimulating activity (CSA) and co-stimulating activity (CoSA) in serum: Blood was taken at intervals from 5 to 48 h after injection of the test compounds, and the ability of the sera from treated mice to stimulate in vitro growth of colonies from granulocyte-macrophage progenitor cells (GM-CFC) was determined. CoSA was determined as the ability of tested compounds, sera of treated mice, or conditioned medium from cultures of adherent stromal cells to enhance the number of GM-CFC colonies induced by a sub-optimal concentration of rmIL-3 in the above-described GM-CFC assay. The concentration of rmIL-3 was adjusted to a value which yielded one third of the maximum number of colonies on a dose-dependent curve.

[7] = system: Friend leukemia virus (FLV); assay: Friend leukemia virus infection: survival, TER-119+ cells, spleen; conditions: day 16; FIG. 24
[8] = Survival after lethal irradiation (10 Gy); assay type: in vivo, mice (strain ICR); conditions: 200 nmol s.c. 24 h before 10 Gy; FIG. 37
Description: Preparations (200 nmol of active substance) were applied to mice (strain ICR, female, 3 months of age, 10 mice per group) by s.c. route 24 h before irradiation (radiation dose of 10 Gy from a ^60Co gamma-ray source at a dose rate of 0.285 Gy/min). PBS and empty liposome served as negative controls, free and liposomal muramyl dipeptide (MDP) served as positive controls.

[9] = system: NK sensitive K562 cell line; assay: NK cell cytotoxicity of human PBMC, 51Cr-release against K562; assay type: cell-based
In short: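 Healthy-donor PBMC effectors were tested in a 4 h 51Cr-release assay at effector:target 16:1, with or without compound at 10^−7 mol/ml. Cytotoxicity was renormalized to untreated controls set at 100%.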

[10] = group 1: 200 μg adjuvant at −48 h + 20 μg DNA
[11] = group 2: 200 μg adjuvant at −24 h + 20 μg DNA
[12] = group 3: 200 μg adjuvant at 0 h + 20 μg DNA
[13] = group 4: 200 μg adjuvant at +24 h + 20 μg DNA

In the case of CCCCCCCCCCCCCCC(CCCCCCCCCCCCCC)C(=O)OC[C@H]1OC(O)[C@H](NC(C)=O)[C@@H](OCC(=O)N[C@@H](CC)C(=O)N[C@H](CCC(=O)O)C(N)=O)[C@@H]1O (some centres unmarked) [B30-norAbu-MDP], the “+ΔTmax (Sum of ΔTmax)” value [1] is reported as 0.5 °C, the “induction of immune responses in intestines” value (S. typhimurium) is reported as “able to induce immune responses in intestines” and the “survival time and survival rate in C. albicans infection” value (C. albicans strain 2091; listed as free (non-liposomal) B30-norAbuMDP) is reported as “lesser effect”. The “survival time and survival rate in C. albicans infection” value (C. albicans strain 2091; listed as free B30-Nor-abuMDP) was “No effect”, the “protective effect / survival rate in S. Enteritidis infection” value (Salmonella enteritidis) was “good protective effects” and the “Day 6 Intest.: clear/infected/dead” value (Salmonella enteritidis) was 5/0/0. The “Day 6 Liver: clear/infected/dead” value (Salmonella enteritidis) was 4/1/0, the “Day 6 Lungs: clear/infected/dead” value (Salmonella enteritidis) was 5/0/0 and the “Day 6 Spleen: clear/infected/dead” value (Salmonella enteritidis) was 4/1/0. For the same compound, the “Day 12 Intest.: clear/infected/dead” value (Salmonella enteritidis) was 4/0/1, the “Day 12 Liver: clear/infected/dead” value (Salmonella enteritidis) was 4/0/1 and the “Day 12 Lungs: clear/infected/dead” value (Salmonella enteritidis) was 4/0/1. The “Day 12 Spleen: clear/infected/dead” value (Salmonella enteritidis) was 4/0/1, the “Skin reaction Day 12” value ([2]; group 1: 200 μg adjuvant at −48 h + 20 μg DNA electroporation prime and boost) was “+ and ++” and the “Skin reaction Day 21” value [2, 10] was “+++ (2×) and ++ (2×)”. The “Skin reaction Day 28” value [2, 10] was “+”, the “Skin reaction Day 12” value ([2]; group 2: 200 μg adjuvant at −24 h + 20 μg DNA electroporation prime and boost) was “+++ (2×) and ++” and the “Skin reaction Day 21” value [2, 11] was “++ (2×) and + (2×)”. For the same compound, the “Skin reaction Day 28” value [2, 11] was “+ (2×) and 0”, the “Skin reaction Day 12” value ([2]; group 3: 200 μg adjuvant at 0 h + 20 μg DNA electroporation prime and boost) was “+++ and + (2×)” and the “Skin reaction Day 21” value [2, 12] was “+”. For the same compound, the “Skin reaction Day 28” value [2, 12] was 0, the “Skin reaction Day 12” value ([2]; group 4: 200 μg adjuvant at +24 h + 20 μg DNA electroporation prime and boost) was “+++ and + (2×)” and the “Skin reaction Day 21” value [2, 13] was “++”. The “Skin reaction Day 28” value [2, 13] was “+ (2×) and 0 (2×)”.
For CCCCCCCCCCCCCCCCCC(=O)NCCCC[C@H](NC(=O)CC[C@@H](NC(=O)[C@H](CC)NC(=O)CO[C@H]1[C@H](O)[C@@H](CO)OC(O)[C@@H]1NC(C)=O)C(N)=O)C(=O)O (stereo partly drawn) [Compound 32, N-[2-O-(2-Acetamido-2,3-dideoxy-α-D-glucopyranosid-3-yl)-glycoloyl]-L-α-aminobutanoyl-D-isoglutaminyl-L-lysine(stearoyl)], the “GM-CFC progenitor cells in bone marrow” value [3] was “strongest effect”, the “GM-CFC progenitor cells in bone marrow” value ([3]; listed as compound 32) was “best compound” and the “antibody response to r-hsp90 proteoliposomes” value [4] was “strong and comparable to AlOH”. The “NK cell activity (cell-mediated cytotoxicity of SMCs)” value [5] was “stimulate NK cell functional activity”, the “+ΔTmax (Sum of ΔTmax)” value [1] was 0.5 °C and the “GM-CFC stimulating activity (CSA) in serum” value [6] was “substantially better”. The “protective effect / survival rate in S. Enteritidis infection” value (Salmonella enteritidis) was “good protective effects”, the “Day 6 Intest.: clear/infected/dead” value (Salmonella enteritidis) was 5/0/0 and the “Day 6 Liver: clear/infected/dead” value (Salmonella enteritidis) was 3/2/0. The “Day 6 Lungs: clear/infected/dead” value (Salmonella enteritidis) was 4/1/0, the “Day 6 Spleen: clear/infected/dead” value (Salmonella enteritidis) was 3/2/0 and the “Day 12 Intest.: clear/infected/dead” value (Salmonella enteritidis) was 2/3/0. For the same compound, the “Day 12 Liver: clear/infected/dead” value (Salmonella enteritidis) was 1/4/0, the “Day 12 Lungs: clear/infected/dead” value (Salmonella enteritidis) was 4/1/0 and the “Day 12 Spleen: clear/infected/dead” value (Salmonella enteritidis) was 1/4/0. For the same compound, the “clonal expansion of TER-119+ erythroleukaemia cells in spleen” value [7] was “dose-dependent, positive effect”, the “survival of lethally irradiated mice” value [8] was “best compound; also recorded: best performance” and the “lag time to reach full NK stimulating activity” value ([9]; no vs 18 h pre-incubation) was “most pronounced”. The “dose response of NK cell activity” value ([9]; range 0.1 μM-100 μM, FIG. 28) was “negative dose response”.
